Consider 23 compounds from paper PMC11042244 (RSC Medicinal Chemistry, 2024).

The subject of experiment [1] is murine bone marrow leukocytes. The experiment can be described thus: Cytotoxicity assay (CellTiter-Glo luminescent cell viability). It is filed as cell-based, murine (CD-1 mice). Particulars: for IC50: Mus musculus, Leukocyte, read-out: Cyto-toxicity IC50; for Cyto-toxicity IC50: 90 min incubation, mean ± SD of three experiments, N.A. = no cytotoxicity at the highest concentration tested (25 μM). The procedure: (§1) All animal use was conducted in accordance with a protocol approved by the Institutional Animal Care and Use Committee (IACUC) at Montana State University (protocol approval number 2022-45-IA). Bone marrow leukocytes were flushed from tibias and femurs of BALB/c mice (2-month old; 25 g body weight) or CD-1 female mice (2.5-month old; 30 g body weight) with HBSS, filtered through a 70 μm nylon cell strainer (BD Biosciences, Franklin Lakes, NJ) to remove cell clumps and bone particles.
The cytotoxicity of compounds for murine bone marrow leukocytes was analyzed using a CellTiter-Glo Luminescent Cell Viability Assay kit (Promega), according to the manufacturer's protocol. Briefly, bone marrow leukocytes from CD-1 mice were incubated at a density of 10^4 cells per well with different concentrations of compounds (the final concentration of DMSO was 1%) for 90 min at 37 °C and 5% CO2. Following treatment, the substrate was added to the cells, and the samples were analyzed with a FlexStation 3 microplate reader (Molecular Devices, San Jose, CA), USA.

The target in experiment [2] is T1, HNE (human neutrophil elastase) (Homo sapiens, UniProt P08246).
T1 construct: purchased Calbiochem
T1 sequence (P08246 30-247 limits assumed): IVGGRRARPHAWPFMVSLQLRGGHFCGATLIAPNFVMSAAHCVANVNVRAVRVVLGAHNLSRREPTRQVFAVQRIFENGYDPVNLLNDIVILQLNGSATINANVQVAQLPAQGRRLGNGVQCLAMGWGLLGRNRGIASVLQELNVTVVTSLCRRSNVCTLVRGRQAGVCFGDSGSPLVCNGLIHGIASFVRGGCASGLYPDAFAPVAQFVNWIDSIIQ
The experiment can be described thus: HNE inhibition assay (fluorogenic substrate, enzymatic). Format: biochemical. The following applies: mean ± SD of three independent experiments, N.A. = no inhibitory activity at the highest concentration tested (50 μM). The protocol:
All compounds were dissolved in 100% DMSO at 5 mM stock concentrations and then subsequently diluted in 100% DMSO at various concentrations appropriate for use in the dose–response assays. […] The HNE inhibition assay was performed in black flat-bottom 96-well microtiter plates. Briefly, a buffer solution containing 200 mM Tris-HCl, pH 7.5, 0.01% bovine serum albumin, and 0.05% Tween-20 and 20 mU mL^−1 of HNE (Calbiochem) was added to wells containing different concentrations of each compound. The reaction was initiated by addition of 25 μM elastase substrate (N-methylsuccinyl-Ala-Ala-Pro-Val-7-amino-4-methylcoumarin, Calbiochem) in a final reaction volume of 100 μL per well. Kinetic measurements were obtained every 30 s for 10 min at 25 °C using a Fluoroskan Ascent FL fluorescence microplate reader (Thermo Electron, MA) with excitation and emission wavelengths of 355 and 460 nm, respectively. For all compounds tested, the concentration of inhibitor that caused 50% inhibition of the enzymatic reaction (IC50) was calculated by plotting % inhibition versus logarithm of inhibitor concentration (at least six points).[50]

Experiment [3] has as its system ROS produced by PMA-stimulated murine bone marrow leukocytes. As to the kind of experiment: Antiradical activity assay: L-012-enhanced chemiluminescence of ROS production. It is filed as cell-based, murine (BALB/c mice). The procedure: as §1
To evaluate antiradical activity, murine bone marrow leukocytes from BALB/c mice were resuspended at 10^6 cells per ml in HBSS containing Ca^2+ and Mg^2+ (HBSS^+) and supplemented with 40 μM L-012 (Wako Chemicals, Richmond, VA),[51] since L-012-enhanced chemiluminescence represents a sensitive and reliable method for detecting ROS.[52] The cells (100 μl) were then aliquoted into wells of 96-well flat-bottom white microtiter plates containing test compounds diluted in 100 μl of HBSS^+ (final DMSO concentration of 1%). The cells were activated by adding 200 nM PMA (Sigma Chemical Co., St. Louis, MO), and luminescence was monitored for 60 min (2 min intervals) at 37 °C using a Fluoroskan Ascent FL microtiter plate reader (Thermo Electron, Waltham, MA). The compound concentration that inhibited ROS production by 50% of the PMA-stimulated response was determined by graphing the percentage inhibition of the 60 min integrated luminescence versus the logarithm of concentration of test compound. Each curve was determined using five to seven compound concentrations. Curve fitting and calculation of median effective concentration values (IC50) were performed by nonlinear regression analysis of the dose–response curves generated using Prism 10 (GraphPad Software, Inc., San Diego, CA, USA).

[4] abbreviates: inhibition of ROS production, 200 nM PMA, 60 min integrated luminescence, mean ± SD of three experiments, N.A. = no inhibitory activity at the highest concentration tested (50 μM).

For the compound `CC(C)(C)C(=O)n1[se]c2ccccc2c1=O` [4e, 2-Pivaloylbenzo[d][1,2]selenazol-3(2H)-one], the IC50 (usually the concentration that gives 50% inhibition) in experiment [1] came to 13600 ± 3100 nM; in experiment [2], 1800 ± 100 nM; in experiment [3] (Mus musculus, Leukocyte, 1 h), 2600 ± 400 nM.
Turning to `O=C(c1ccccc1)n1[se]c2ccccc2c1=O` [4m, 2-Benzoylbenzo[d][1,2]selenazol-3(2H)-one], the IC50 in experiment [2] is 2300 ± 400 nM.
Take `CCOC(=O)c1ccc(-n2[se]c3ccccc3c2=O)cc1` [3b]: in experiment [1], the “Cyto-toxicity IC50” value is listed as “no cytotoxicity”. Moreover, in experiment [3] (Mus musculus, Leukocyte, 1 h), the IC50 came out at 1800 ± 200 nM.
As for `CCCCCC(=O)n1[se]c2ccccc2c1=O` [4g, 2-Hexanoylbenzo[d][1,2]selenazol-3(2H)-one], in experiment [1], the “Cyto-toxicity IC50” value is recorded as “no cytotoxicity”. Besides, in experiment [2], the IC50 is 3000 ± 400 nM. Also, in experiment [3] (setting [4]), the “Antiradical activity IC50” value is “inactivity”.
Regarding `O=C(NC1CC1)n1[se]c2ccccc2c1=O` [compound 8, N-Cyclopropyl-3-oxobenzo[d][1,2]selenazole-2(3H)-carboxamide], the IC50 in experiment [1] is 5900 ± 1600 nM; in experiment [3] (Mus musculus, Leukocyte, 1 h), 900 ± 300 nM. Further, in experiment [2], the “HNE inhibition IC50” value was “completely inactive”.
In experiment [2], `COc1ccc(C(=O)n2[se]c3ccccc3c2=O)cc1` [4o, 2-(4-Methoxybenzoyl)benzo[d][1,2]selenazol-3(2H)-one] returned an IC50 of 8700 ± 1200 nM.
Consider `CC(=O)n1[se]c2ccccc2c1=O` [4a, 2-Acetylbenzo[d][1,2]selenazol-3(2H)-one], for which the IC50 in experiment [1] is 10800 ± 2400 nM; in experiment [2], 7700 ± 2300 nM; in experiment [3] (Mus musculus, Leukocyte, 1 h), 420 ± 60 nM.
For `CCCC(=O)n1[se]c2ccccc2c1=O` [4c, 2-Butyrylbenzo[d][1,2]selenazol-3(2H)-one], in that order: 4900 ± 600 nM, 2400 ± 400 nM and 330 ± 80 nM.
In the same order, the values of `O=C(C1CCCCC1)n1[se]c2ccccc2c1=O` [4l, 2-(Cyclohexanecarbonyl)benzo[d][1,2]selenazol-3(2H)-one] are 12400 ± 3400 nM, 24100 ± 4800 nM and 1100 ± 100 nM.
With `CCOC(=O)n1[se]c2ccccc2c1=O` [4h, Ethyl 3-oxobenzo[d][1,2]selenazole-2(3H)-carboxylate], the IC50 in experiment [1] came to 15200 ± 3200 nM; in experiment [3] (Mus musculus, Leukocyte, 1 h), 2500 ± 400 nM. The “HNE inhibition IC50” value in experiment [2] is “completely inactive”.
As to `O=C(C1CC1)n1[se]c2ccccc2c1=O` [4j, 2-(Cyclopropanecarbonyl)benzo[d][1,2]selenazol-3(2H)-one], the IC50 in experiment [1] came to 10400 ± 2400 nM; in experiment [2] it was 1400 ± 100 nM.
As for `CCOC(=O)CC(=O)n1[se]c2ccccc2c1=O` [4i, Ethyl 3-oxo-3-(3-oxobenzo[d][1,2]selenazol-2(3H)-yl)propanoate], the IC50 in experiment [1] was 8100 ± 1700 nM; in experiment [3] (Mus musculus, Leukocyte, 1 h), 1000 ± 300 nM.
Take `CC(C)(C)C(=O)Oc1ccc(S(=O)(=O)Nc2ccccc2C(=O)NCC(=O)O)cc1` [Sivelestat, reference compound]: the “Cyto-toxicity IC50” value in experiment [1] is given as “no cytotoxicity”.
`CC(C)(C)C(=O)Oc1ccc(S(=O)(=O)n2[se]c3ccccc3c2=O)cc1` [compound 6, 4-[(3-Oxobenzo[d][1,2]selenazol-2(3H)-yl)sulfonyl]phenyl pivalate]: in experiment [1], the “Cyto-toxicity IC50” value is reported as “no cytotoxicity”. For the same compound, the IC50 in experiment [2] worked out at 2700 ± 500 nM; in experiment [3] (Mus musculus, Leukocyte, 1 h), 6400 ± 400 nM.
As to `O=c1c2ccccc2[se]n1-c1ccccc1` [Ebselen (3a), 2-phenyl-1,2-benzoselenazol-3(2H)-one, reference compound], in experiment [1], the IC50 was determined as 9500 ± 2500 nM. In addition, in experiment [2], the “HNE inhibition IC50” value is “completely inactive”.
As for `CCC(=O)n1[se]c2ccccc2c1=O` [4b, 2-Propionylbenzo[d][1,2]selenazol-3(2H)-one], the IC50 in experiment [1] is 8500 ± 1800 nM; in experiment [2], 2600 ± 200 nM; in experiment [3] (Mus musculus, Leukocyte, 1 h) it was 180 ± 50 nM.
Consider `Cc1cccc(C(=O)n2[se]c3ccccc3c2=O)c1` [4n, 2-(3-Methylbenzoyl)benzo[d][1,2]selenazol-3(2H)-one], for which the “Cyto-toxicity IC50” value in experiment [1] is “no cytotoxicity”. The 50% inhibitory concentration (IC50) in experiment [2] worked out at 10900 ± 2100 nM; in experiment [3] (Mus musculus, Leukocyte, 1 h), 7000 ± 1300 nM.
Take `O=C(NC1CC1)c1ccc(-n2[se]c3ccccc3c2=O)cc1` [3c, N-Cyclopropyl-4-(3-oxobenzo[d][1,2]selenazol-2(3H)-yl)benzamide]: the IC50 worked out at 8000 ± 1900 nM in experiment [1] and 9700 ± 1400 nM in experiment [3] (Mus musculus, Leukocyte, 1 h).
Regarding `O=C(c1ccsc1)n1[se]c2ccccc2c1=O` [4p, 2-(Thiophene-3-carbonyl)benzo[d][1,2]selenazol-3(2H)-one], in experiment [1], the “Cyto-toxicity IC50” value is “no cytotoxicity”. Also, in experiment [3] (Mus musculus, Leukocyte, 1 h), the IC50 stood at 14300 ± 2700 nM.
With `O=C(C1CCCC1)n1[se]c2ccccc2c1=O` [4k, 2-(Cyclopentanecarbonyl)benzo[d][1,2]selenazol-3(2H)-one], the 50% inhibitory concentration (IC50) in experiment [1] was found to be 11800 ± 2800 nM; in experiment [2], 2800 ± 200 nM; in experiment [3] (Mus musculus, Leukocyte, 1 h) it was 1400 ± 200 nM.
In the same order, the values of `CC(C)C(=O)n1[se]c2ccccc2c1=O` [4d, 2-Isobutyrylbenzo[d][1,2]selenazol-3(2H)-one] are 9600 ± 2200 nM, 1200 ± 100 nM and 600 ± 200 nM.
With `Cc1cccc(NC(=O)c2ccc(-n3[se]c4ccccc4c3=O)cc2)c1` [3d, 4-(3-Oxobenzo[d][1,2]selenazol-2(3H)-yl)-N-(m-tolyl)benzamide], the “Cyto-toxicity IC50” value in experiment [1] is reported as “no cytotoxicity”. Moreover, in experiment [3] (setting [4]), the “Antiradical activity IC50” value is reported as “inactivity”.
Turning to `CCCCC(=O)n1[se]c2ccccc2c1=O` [4f, 2-pentanoylbenzo[d][1,2]selenazol-3(2H)-one], the IC50 in experiment [1] is 4200 ± 900 nM; in experiment [2], 900 ± 200 nM; in experiment [3] (Mus musculus, Leukocyte, 1 h) it was less than 1000 nM; in experiment [3] (setting [4]), 700 ± 200 nM.
